The record followed here is EP0521435A2, “Method to promote the production of secondary metabolites in plant cell cultures” (B.A.T. Cigarettenfabriken GmbH, priority 1991, dated 1993).

The test system of data set [1] is Kultur von Rubia tinctorum. Kind of data set: Elicitation of anthraquinones (alizarin) in cell culture. The class given is cell-based. The following applies: added after 4 days, harvested after 7 days; concentration not given. The text has this:
(§1) B. Glukoseester, Aminosäure- oder andere Kohlenhydrataddukte eingesetzt werden.
Eine Kultur von Rubia tinctorum wird in LS-Medium kultiviert. Nach 4 Tagen werden der Kultur 2',3'-Dihydrojasmonat zugesetzt. Nach 7 Tagen wird die Kultur geerntet und der Anthrachinon-Gehalt bestimmt. Der Zuwachs an Alizarin beträgt das ca. 40-fache gegenüber der Kontrolle.

Data set [2] has as its system Rauwolfia canescens Zellkultur. Kind of data set: Induction of new indole alkaloids in cell culture. The class given is cell-based. The following applies: 200 µmol/l; cultivated 6 further days; number of new alkaloids.
From the text: as §1
Einer 4 Tage alten Rauwolfia canescens Zellkultur (LS-Medium) wird 3-Hydroxyjasmonat zu einer Endkonzentration von 200 µmol/l zugesetzt. Die Kultur wird 6 Tage weiterkultiviert und mit einer entsprechenden Kontrolle, der kein 3-Hydroxyjasmonat zugesetzt wurde, verglichen. Dabei zeigt sich, daß in dieser Zellkultur 6 Indolalkaloide gebildet werden, die in der Kontrollkultur nicht vorkommen.

Data set [3] relates to Zellkultur von Lactuca sativa. Kind of data set: Elicitation of lettucenin A in cell culture. The class given is cell-based. Conditions: 250 µmol/l; extraction 6 days later; not detectable in control culture. As to the method: as §1
Eine Zellkultur von Lactuca sativa wird 24 Stunden nach dem Überimpfen in LS-Medium mit 3-Hydroxyjasmonsäure zu einer Endkonzentration von 250 µmol/l versetzt. Die Extraktion mit Methanol erfolgt 6 Tage später. Die elicitierten Kulturen enthalten das Custonolid Lettucenin A in einer Konzentration von ca. 30 mg/I. In den Extrakten einer Kontrollkultur ist Lettucenin A nicht nachweisbar.

The test system of data set [4] is Zellkulturen von Cinchona succirubra bzw. Cinchona ledgeriana. Kind of data set: Elicitation of secondary metabolites in Cinchona cell cultures. The class given is cell-based. Conditions: product not named in b24 (Chinidin und Chinin according to b23); concentration of elicitor not given. An excerpt:
Beispiele für Sekundärstoffe, die durch das erfindungsgemäße Verfahren produziert werden können, sind: Atropin und Scopolamin, isoliert aus Hyoscyamus- und Datura-Wurzelkulturen, Colchicin aus Herbstzeitlose, Emetin aus Zell- und Wurzelkulturen der Brechwurz, Codein und Morphin aus Zellkulturen des Schlafmohns, Chinidin und Chinin aus Zellkulturen von Cinchona succirubra bzw. Cinchona ledgeriana, Ajmalin, Rescinamin, Reserpin aus Zellkulturen von Rauwolfia-Arten. Diese Substanzen werden arzneilich eingesetzt. Insbesondere sind also die Stoffgruppen der Indolalkaloide, der Isochinolinalkaloide, der Lignane und Isoprenoide zu nennen. […]

A further data set concerns Linum hirsutum. Kind of data set: Elicitation of lignans. The class given is cell-based. Conditions: versus control; concentration of elicitor not given.
From the text: (§2) Weitere Beispiele sind: Digitalis purpurea: Cardenoloide, die unter dem Einfluß von Jasmonat gegenüber der Kontrolle eine 2-fach gesteigerte Konzentration erreichen; Linum hirsutum: Lignane, die 2,5-fach gesteigert sind; Gossypium herbaceum: Gossipol, 10-fach gesteigert gegenüber der Kontrolle; isolierte Wurzelkulturen von Hyoscyamus alba: Hyoscyamin/Scopolamin: stark parasympatholytische bzw. zentraldämpfende, medizinisch wertvolle Alkaloide, 12-fache Steigerung gegenüber der Kontrolle; Zellkulturen von Colchicum autumnale, die das Gichtmittel Colchicin produzieren, 8-fache Steigerung gegenüber der Kontrolle; Zellkulturen von Cephaelis ipecacuanha, die das arzneilich genutzte Emetin produzieren, das bei Keuchhusten und Bronchialasthma sowie als erbrechungsförderndes Mittel Anwendung findet, 7,5-fache Steigerung gegenüber der Kontrolle; Zellkulturen von Cinchona succirubra bzw. Cinchona ledgeriana, die medizinisch als Antiarhythmikum bzw. als Chemotherapeutikum (Malaria) eingesetzt werden, Steigerung 14-fach; Zellkulturen von Rauwolfia serpentina, die die therapeutisch genutzten Indolalkaloide Reserpin (blutdrucksenkend, sedierend), Serpentin (blutdrucksenkend), Ajmalin (bei Herzrhythmusstörungen), Ajmalicin (Gehirn-durchblutungsfördernd), Yohimbin (durchblutungsfördernd) produzieren.
as §1

Data set [5] deals with Zellkulturen von Colchicum autumnale. The class given is cell-based. The following applies: concentration of elicitor not given.
From the text: as §2, §1

Another data set concerns Digitalis purpurea. The class given is cell-based. The following applies: concentration of elicitor not given.
From the text: as §2, §1

For data set [6], the system named is isolierte Wurzelkulturen von Hyoscyamus alba. The class given is cell-based. The following applies: isolated root cultures; concentration of elicitor not given.
From the text: as §2, §1

Data set [7] has as its system Zellkulturen von Cephaelis ipecacuanha. In kind it is cell-based. The following applies: concentration of elicitor not given.
From the text: as §2, §1

For a further data set, the system named is Gossypium herbaceum. In kind it is cell-based. Conditions: concentration of elicitor not given.
From the text: as §2, §1

Data set [8] has as its system Kultur von Rauwolfia serpentina. Put plainly: Elicitation of vallesiachotamine in cell culture. The class given is cell-based. Conditions: 200 umol/1, cultivated 4 further days. The procedure: as §1
Eine Kultur von Rauwolfia serpentina, in LS-Medium 3 Tage gewachsen, wird zu einer Endkonzentration von 200 umol/1 mit Jasmonsäure versetzt und 4 Tage weiterkultiviert. Der methanolische Extrakt des Gewebes enthält eine 8-fache Vallesiacotamin-Konzentration gegenüber der Kontrolle. Der Absolutwert ist 70 mg/I Medium.

Another data set relates to Berberinbrückenenzym. Put plainly: mRNA hybridisation with a probe against the berberine bridge enzyme after elicitation. In kind it is cell-based, Eschscholtzia californica. The following applies: elicited as in Beispiel 1. An excerpt: Zellkulturen von Eschscholtzia californica werden - wie in Beispiel 1 beschrieben - mit Methyljasmonat elicitiert. Nach Zugabe des Jasmonats werden im Abstand von je 1 Stunde Aliquots entnommen und die m-RNA extrahiert. Die m-RNA wird mit einer Probe gegen das Berberinbrückenenzym, ein Schlüsselenzym des Benzophenanthridin-Stoffwechsels, hybridisiert. […] Die so induzierte m-RNA ist ein Indiz für die Genaktivierung der an der Elicitierung und an der Alkaloidbiosynthese beteiligten Enzyme. Die Verbindungen der Formel (I) sind demnach in der Lage, reprimierte Sekundärstoffgene zu aktivieren.

Another data set relates to Kultur von Glycine max. Put plainly: cells. The following applies: 144 h, read-out: höhere Konzentration an Daidcein- und Genistein-Glycosiden.
Data set [9] concerns Zellsuspensionskultur von Eschscholtzia californica. The following applies: 20 umol/1; cultivated 5 further days; per litre culture medium.
From the text: (§3) Die Zellkultur wird in Flüssigmedium kultiviert und kann entweder in entsprechenden Kulturgefäßen oder in Fermentern herangezogen werden. Nach einer Anwachsphase von 2 bis 10 Tagen wird dem Medium eine in Ethanol gelöste Verbindung der Formel (I) zugesetzt. […] Nach Bildung der maximalen Konzentration an Sekundärstoffen wird der Versuch durch Separierung der Zellen vom Medium abgebrochen und die Sekundärstoffe werden anschließend nach bekannten Verfahren aus dem Zellüberstand oder den Zellen isoliert.
(§4) Einer Zellsuspensionskultur von Eschscholtzia californica, die in 1 Liter LS-Nährmedium (Linsmaier, E. M., Skoog, F., Physiol. Plant 18, 100 (1965)) herangewachsen ist und deren Frischgewicht 200 g beträgt, wird Methyljasmonat zu einer Endkonzentration von 20 umol/1 zugesetzt. Die Kultur wird für 5 Tage weiterkultiviert, anschließend mit 200 ml salzsaurem Ethanol (1,7 ml HCI konz./1 I Ethanol) 2 Stunden lang bei 60 ° C extrahiert.
Data set [10] has the same test system. Put plainly: cells. Conditions: 120 h, read-out: Steigerung der Benzophenanthridin-Produktion.
From the text: as §3, §4
The subject of data set [11] is Kultur von Ruta chalepensis. Put plainly: Elicitation of rutacridone in cell culture. Conditions: 40 µmol/l; cultivated 5 further days; methanol extract. In kind it is cell-based.
From the text: as §1
Eine 2 Tage alte Kultur von Ruta chalepensis (4x-Medium) wird mit Jasmonatglukosid zu einer Endkonzentration von 40 µmol/l versetzt, für 5 Tage weiterkultiviert und mit Methanol extrahiert. Der Extrakt zeigt einen 18-fachen Rutacridon-Gehalt gegenüber der Kontrolle.

Protocol for Kultur von Glycine max: Die Zellkultur wird in Flüssigmedium kultiviert und kann entweder in entsprechenden Kulturgefäßen oder in Fermentern herangezogen werden. Nach einer Anwachsphase von 2 bis 10 Tagen wird dem Medium eine in Ethanol gelöste Verbindung der Formel (I) zugesetzt.
Eine Kultur von Glycine max wird mit 330 g Frischgewicht in 1 Liter 4x-Medium (Gamborg, Miller, Ojima, Experiment Research 50, 151 - 158 (1968)), 2,4-D 2 mg/I, NES 0,5 mg/I, IES 0,5 mg/I, Kinetin 0,2 mg/I versetzt. 3 Tage später wird Methyljasmonat zu einer Endkonzentration von 250 umol/1 zugesetzt. Nach einer Kultivierungsperiode von 6 Tagen wird die Kultur mit Methanol extrahiert (50 g Frischgewicht/200 ml Methanol; 2 Stunden, 60 ° C).

Regarding 2',3'-Dihydrojasmonat, the “Zuwachs an Alizarin gegenüber der Kontrolle” value in [1] is recorded as “ca. 40 -fach”.
With 3-Hydroxyjasmonat, the “Indolalkaloide gebildet, die in der Kontrollkultur nicht vorkommen” value in data set [2] was determined as 6.
Turning to 3-Hydroxyjasmonsäure, the “Lettucenin A Konzentration” value in [3] was “ca. 30 mg/I”.
Consider `CC/C=C\C[C@H]1C(=O)CC[C@@H]1CC(=O)O` [Jasmonat], for which the Steigerung in data set [4] is listed as 14 -fach. Moreover, the Lignane gesteigert with Linum hirsutum was 2,5 -fach. The “Colchicin Steigerung gegenüber der Kontrolle” value in data set [5] is 8 -fach. Further, the “Cardenoloide, gesteigerte Konzentration gegenüber der Kontrolle” value in the data set on Digitalis purpurea is 2 -fach. Besides, the “Hyoscyamin/Scopolamin Steigerung gegenüber der Kontrolle” value in [6] was 12 -fach. In addition, the “Emetin Steigerung gegenüber der Kontrolle” value in data set [7] is given as 7,5 -fach. Besides, in the data set on Gossypium herbaceum, the “Gossipol gesteigert gegenüber der Kontrolle” value is given as 10 -fach.
As for `CCC=CCC1C(=O)CCC1CC(=O)O` (stereo not drawn) [Jasmonsäure], the “Vallesiacotamin-Konzentration, Absolutwert” value in [8] is given as 70 mg/I Medium. In addition, the fold induction at 200 µM in [8] (Rauvolfia serpentina, 96 h, methanolic extract of the tissue, read-out: Vallesiacotamin-Konzentration gegenüber der Kontrolle) came out at 8.
Consider `CCC=CCC1C(=O)CCC1CC(=O)OC` (stereo not drawn) [Methyljasmonat], for which the “spezifische m-RNA-Menge” value in the data set on Berberinbrückenenzym (in 2 hours after addition, versus control culture) was “verdoppelt”; with Berberinbrückenenzym (in 10 hours after addition, then decreases again), “weiter ansteigt”. In the data set with Kultur von Glycine max, the fold induction at 250 µM is roughly 30. In addition, in data set [9], the “Gesamtausbeute der Kultur, Benzophenanthridine pro Liter Kulturmedium” value is 300 mg. Also, the fold induction at 20 µM in data set [10] worked out at 15.
As to Jasmonatglukosid, the “Rutacridon-Gehalt gegenüber der Kontrolle” value in data set [11] is 18 -fach.
